Earlier results in patent US7781400B2, “Pharmaceutical compositions comprising dextran with a molecular weight of 1.0-100 KDA and processes for their preparation” (BOWS Pharmaceuticals AG, priority 2006, dated 2010).

Settings: in vivo

## polyglycolide
  adverse tissue response rates: up to 47%
